Format in all cases: cell-based
One assay relates to HuH7. The assay is described as follows: Proliferation assay (CellTiter-Glo luminescent cell viability assay), HuH7. The settings on record: Huh-7; human hepatoma HuH7; 48 hours incubation; 10% (v/v) FCS; compounds 0 to 20 µM; read-out: EC50 (effective concentration reducing cell proliferation by 50%), inhibition of HuH7 proliferation. On the procedure:
(§1) The assay is based on the relation that the ATP content is directly proportional to the number of cells present in the culture. The CellTiter-Glo® assay is performed to measure the proliferation rate of human hepatoma (HuH7, PLC/PRF/5, Hep3B, SK-Hep1), human hepatoblastoma (HepG2), human colon carcinoma (CX-2), human breast cancer (SK-Br-3), human […] (HeLa) and human pancreatic carcinoma (DAN-G) cell lines (see Example 2). […] Further, HepG2 and Hep3B are inhibited with an EC50 of 0.9 and 0.3 µM, respectively.
To determine the inhibition of cell proliferation a luminescent cell viability assay (CellTiter-Glo®; Promega, Madison, USA) is implemented. The assay is based on the relation that the ATP content is directly proportional to the number of cells present in the culture, see Technical Bulletin No. 228 "CellTiter-Glo® Luminescent Cell viability Assay", Revised 2/04. Promeg, Madison, USA. The CellTiter-Glo® assay is performed to measure the proliferation rate of human hepatoma (HuH7, PLC/PRF/5, Hep3B, SK-Hep1), human hepatoblastoma (HepG2), human colon carcinoma (CX-2), human breast cancer (SK-Br-3), human […] (HeLa) and human pancreatic carcinoma (DAN-G) cell lines. 3000 viable cells (viability ≥ 90%) are seeded in opaque-walled 96-well plates and incubated for 24 hours in DMEM, supplemented with 2 mM glutamin. Cell proliferation is stimulated by addition of FCS to a final concentration of 10% (v/v). Simultaneously the compounds I to XVII (see Table 1 A to 1D and 2) are added in a concentration range of 0 to 20 µM. Triplicates are measured for each concentration. Cells and compounds (see Table 1 A to 1D, and 2) are incubated for a period of 48 hours in a volume of 140 µl cell culture medium (10% (v/v) FCS, 2 mM Glutamin, DMEM). The compounds are solved in 60% to 100% (v/v) DMSO at a concentration of 2 mM. The final DMSO concentration under assay conditions never exceeded 1% (v/v). Throughout the assay cells are kept in a humidified incubator (95% rH) at 37°C and 5% CO2. The final cell number is determined after 48 hour of incubation. Therefore 140 µl CellTiter-Glo®Reagent is added in each well. The contents are mixed on an orbital shaker for 2 minutes at room temperature. After subsequent incubation for additional 10 minutes at room temperature the luminescence signal was recorded within 30 min. EC50 values are calculated using the four-parametric Hill equation (Sigma Plot).
Control values are: (1) 10% (v/v) FCS, 2 mM Glutamin, DMEM -> maximum cell number and (2) 2 mM Glutamin, DMEM -> initial cell number.

In the next assay the test system is HeLa. Briefly: Proliferation assay (CellTiter-Glo luminescent cell viability assay), HeLa. The settings on record: HeLa (printed as human ovarian carcinoma); 48 hours incubation; 10% (v/v) FCS; read-out: EC50 (effective concentration reducing cell proliferation by 50%), inhibition of HeLa proliferation. The method, then: as §1
(§2) To determine the inhibition of cell proliferation a luminescent cell viability assay (CellTiter-Glo®; Promega, Madison, USA) is implemented. The assay is based on the relation that the ATP content is directly proportional to the number of cells present in the culture, see Technical Bulletin No. 228 "CellTiter-Glo® Luminescent Cell viability Assay", Revised 2/04. Promeg, Madison, USA. […] Triplicates are measured for each concentration. […] The final cell number is determined after 48 hour of incubation. […] After subsequent incubation for additional 10 minutes at room temperature the luminescence signal was recorded within 30 min. EC50 values are calculated using the four-parametric Hill equation (Sigma Plot). […]
A general note: ATP-based viability assays read luminescence as a measure of living cells.

Another assay relates to CX-2. Briefly: Proliferation assay (CellTiter-Glo luminescent cell viability assay), CX-2. The settings on record: human colon carcinoma CX-2; 48 hours incubation; 10% (v/v) FCS; read-out: EC50 (effective concentration reducing cell proliferation by 50%), inhibition of CX-2 proliferation. On the procedure: as §1, §2
The test system of the next assay is Hep3B. The assay is described as follows: Proliferation assay (CellTiter-Glo luminescent cell viability assay), Hep3B. The following applies: human hepatoma Hep3B; 48 hours incubation; 10% (v/v) FCS; read-out: EC50, inhibition of Hep3B proliferation. The method, then:
as §1, §2

Another assay has as its system Sk-Br-3. Briefly: Proliferation assay (CellTiter-Glo luminescent cell viability assay), SK-Br-3. The settings on record: human breast cancer SK-Br-3; 48 hours incubation; 10% (v/v) FCS; read-out: EC50 (effective concentration reducing cell proliferation by 50%), inhibition of SK-Br-3 proliferation. On the procedure:
as §1, §2

The test system of a further assay is DAN-G. The assay is described as follows: Proliferation assay (CellTiter-Glo luminescent cell viability assay), DAN-G. The settings on record: human pancreatic carcinoma DAN-G; 48 hours incubation; 10% (v/v) FCS; read-out: EC50 (effective concentration reducing cell proliferation by 50%), inhibition of DAN-G proliferation. On the procedure:
as §1, §2

The test system of the next assay is HepG2. The assay is described as follows: Proliferation assay (CellTiter-Glo luminescent cell viability assay), HepG2. The settings on record: human hepatoblastoma HepG2; 48 hours incubation; 10% (v/v) FCS; read-out: EC50, inhibition of HepG2 proliferation. The method, then:
as §1, §2

For `O=C(C1N=Nc2ccccc21)N1CCC(c2nc(-c3ccc4c(c3)OCCO4)cs2)CC1` (stereo not drawn) [XVI], in the assay on HuH7, the EC50 worked out at 24.9 µM.

Take `O=C(c1csc(-c2cnccn2)n1)N1CCC(c2nc(-c3ccc4c(c3)OCCO4)cs2)CC1` [XIII]: the EC50 in the assay on HuH7 was found to be 6 µM.

In the case of `O=C(CCCc1nc2ccccc2[nH]1)N1CCC(c2nc(-c3cccc(Br)c3)cs2)CC1` [X], the EC50 with HuH7 stood at 1.93 µM.

With `CCOC(=O)c1cc(-c2csc(C3CCN(C(=O)/C=C/c4ccc5c(c4)OCO5)CC3)n2)on1` [VI], the EC50 in the assay with HuH7 amounted to 20.7 µM.

On to `O=C(c1cccnc1OCC(F)(F)F)N1CCC(c2nc(-c3ccc4c(c3)OCCO4)cs2)CC1` [VII], for which, in the assay on HuH7, the EC50 is 6.2 µM.

Turning to `CCOC(=O)c1cc(-c2csc(C3CCN(C(=O)/C(C)=C/c4cc(OC)c(OC)cc4OC)CC3)n2)on1` [II], the EC50 in the assay with HuH7 worked out at 12.4 µM.

Regarding `Cc1cc(Cl)ccc1NC(=O)COCC(=O)N1CCC(c2nc(-c3ccc4c(c3)OCCO4)cs2)CC1` [XV], in the assay on HuH7, the EC50 turned out to be 4.94 µM.

With `CCOC(=O)/C=C/C(=O)N1CCC(c2nc(-c3ccc(Cl)c([N+](=O)[O-])c3)cs2)CC1` [XVII], in the assay on HuH7, the EC50 came to 0.63 µM.

On to `CCN(CC)c1ccc(-c2csc(C3CCN(Cc4ccc(N(CCC#N)CCC#N)cc4)CC3)n2)cc1` [XII], for which the EC50 with HuH7 turned out to be 5.76 µM.

Consider `O=C(c1ccccc1C[S+]([O-])c1ccccc1)N1CCC(c2nc(-c3ccc4c(c3)OCCO4)cs2)CC1` (stereo not drawn) [XI], for which the EC50 in the assay on HuH7 was found to be 3.35 µM.

As for `CCOC(=O)CNC(=O)N1CCC(c2nc(-c3cccc(Br)c3)cs2)CC1` [VIII], the EC50 with HuH7 is 1.89 µM.

On to `O=C(/C=C/c1ccc2c(c1)OCO2)N1CCC(c2nc(-c3ccc4c(c3)OCCO4)cs2)CC1` [Compound I, E-3-{4-[4-(3,4-ethylendioxphenyl)-thiazol-2-yl]-piperidin-1-yl}-1-(3,4-methylendioxyphenyl)-3-oxo-prop-1-ene], for which the EC50 in the assay on HeLa was determined as 14.8 µM; with CX-2 it was 19.1 µM; with Hep3B, 0.3 µM; in the assay on Sk-Br-3, 10.8 µM; in the assay on DAN-G, 4.69 µM; in the assay with HuH7, 0.33 µM. Further, the EC50 with HepG2 was 0.9 µM.

For `COC(=O)C(NC(=O)N1CCC(c2nc(-c3ccc4c(c3)OCCO4)cs2)CC1)C(C)C` (stereo not drawn) [IV], the EC50 in the assay on HuH7 was found to be 5.02 µM.

For `O=C1CC(C(=O)N2CCC(c3nc(-c4ccc5c(c4)OCCO5)cs3)CC2)CN1Cc1cccs1` (stereo not drawn) [XIV], the EC50 in the assay with HuH7 worked out at 29 µM.

Consider `CCOC(=O)c1cc(-c2csc(C3CCN(C(=O)C(Cc4ccccc4F)NC(C)=O)CC3)n2)on1` (stereo not drawn) [III], for which the EC50 in the assay on HuH7 turned out to be 1.61 µM.

With `Cc1nn(C)c(Cl)c1/C=C/C(=O)N1CCC(c2nc(-c3ccc4c(c3)OCCO4)cs2)CC1` [V], the EC50 in the assay with HeLa was 18.7 µM; in the assay on CX-2, > 20 µM; in the assay with Sk-Br-3, > 20 µM; with DAN-G, 11.1 µM; in the assay with HuH7, 10.7 µM.

On to `O=C(C1COc2ccccc2O1)N1CCC(c2nc(-c3ccc4c(c3)OCCO4)cs2)CC1` (stereo not drawn) [IX], for which the EC50 with HuH7 was found to be 3.93 µM.
